Reference: article PMC12120773, “SIRT4 Promotes Pancreatic Cancer Stemness by Enhancing Histone Lactylation and Epigenetic Reprogramming Stimulated by Calcium Signaling” (Advanced Science, 2025)

Key:
[1] = biological target: T1, ENO1 (Enolase 1, α isoform of enolase) (Homo sapiens, UniProt P06733, K358Q); assay: SPR steady-state affinity (Biacore T200, CM5 chip); type: binding
T1 construct: recombinant protein expressed in E. coli (printed for the mutants), amine-coupled to CM5 chip

[2] = biological target: T2, ENO1 (Enolase 1, α isoform of enolase) (Homo sapiens, UniProt P06733, K358R); assay: SPR steady-state affinity (Biacore T200, CM5 chip); type: binding
T2 construct: recombinant protein expressed in E. coli (printed for the mutants), amine-coupled to CM5 chip
T2 sequence (P06733 2-434 K358R): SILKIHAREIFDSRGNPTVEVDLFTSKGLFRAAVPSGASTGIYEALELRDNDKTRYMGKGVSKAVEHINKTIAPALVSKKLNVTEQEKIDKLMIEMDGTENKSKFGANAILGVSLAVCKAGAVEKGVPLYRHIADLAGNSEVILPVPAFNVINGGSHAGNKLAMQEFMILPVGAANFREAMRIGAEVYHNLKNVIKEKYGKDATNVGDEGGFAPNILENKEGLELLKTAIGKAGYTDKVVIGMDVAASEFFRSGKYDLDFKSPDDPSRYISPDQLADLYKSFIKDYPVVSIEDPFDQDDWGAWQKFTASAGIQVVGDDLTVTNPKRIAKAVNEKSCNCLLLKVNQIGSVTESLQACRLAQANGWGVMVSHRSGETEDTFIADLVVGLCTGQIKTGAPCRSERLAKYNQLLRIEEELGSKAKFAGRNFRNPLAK

T1 sequence (P06733 2-434 K358Q): as the sequence (P06733 2-434 K358R) above, with R357Q counted along it

Compound `O=C(O)[C@@H](CO)OP(=O)(O)O` [2‐PG] has a Kd [1] of 17.7 µM and a Kd [2] of 2.61 µM.
